From PubChem BioAssay AID1745844 (Carcinogenic Potency Database (CPDB), 2022)
Values joined by “and” are separate entries in the source; they are usually repeats but may differ in a detail not shown here. Identical values can stand only once. Active and inactive are the calls of the source. No rule for the calls is given here.

Tested on: rodent lifetime carcinogenesis bioassay, tumor incidence TD50
Assay: chronic cancer bioassays in animals – CPDB, compiled studies (AID 1745844)

## Cn1c(N)nc2c3cccnc3ccc21
monkey, strain Cynomolgus [Macaca fascicularis], both sexes, by gavage, site: any site (literature study), lesion: malignant tumor, dosed 485 weeks, study length 485 weeks
  TD50: 0.374 mg/kg/day
monkey, strain Cynomolgus [Macaca fascicularis], both sexes, by gavage, site: liver, lesion: hepatocellular carcinoma, dosed 485 weeks, study length 485 weeks
  TD50: 0.374 mg/kg/day
mouse, strain CDF1, females, in feed, site: forestomach, lesion: several types, types named in the paper, dosed 96 weeks, study length 96 weeks
  TD50: 62.4 mg/kg/day
mouse, strain CDF1, females, in feed, site: liver, lesion: hepatocellular carcinoma, dosed 96 weeks, study length 96 weeks
  TD50: 24.1 mg/kg/day
mouse, strain CDF1, females, in feed, site: liver, lesion: several types, types named in the paper, dosed 96 weeks, study length 96 weeks
  TD50: 17.5 mg/kg/day
mouse, strain CDF1, females, in feed, site: lung, lesion: several types, types named in the paper, dosed 96 weeks, study length 96 weeks
  TD50: 67.9 mg/kg/day
mouse, strain CDF1, males, in feed, site: forestomach, lesion: several types, types named in the paper, dosed 96 weeks, study length 96 weeks
  TD50: 42.3 mg/kg/day
mouse, strain CDF1, males, in feed, site: forestomach, lesion: squamous-cell carcinoma, dosed 96 weeks, study length 96 weeks
  TD50: 153 mg/kg/day
mouse, strain CDF1, males, in feed, site: liver, lesion: hepatocellular carcinoma, dosed 96 weeks, study length 96 weeks
  TD50: 91.6 mg/kg/day
mouse, strain CDF1, males, in feed, site: liver, lesion: several types, types named in the paper, dosed 96 weeks, study length 96 weeks
  TD50: 48.6 mg/kg/day
mouse, strain CDF1, males, in feed, site: lung, lesion: adenocarcinoma, dosed 96 weeks, study length 96 weeks
  TD50: 60.2 mg/kg/day
mouse, strain CDF1, males, in feed, site: lung, lesion: several types, types named in the paper, dosed 96 weeks, study length 96 weeks
  TD50: 22.4 mg/kg/day
rat, strain F344/DuCrj, females, in feed, site: Zymbal's gland, lesion: squamous-cell carcinoma, dosed 72 weeks, study length 72 weeks
  TD50: 4.38 mg/kg/day
rat, strain F344/DuCrj, females, in feed, site: clitoral gland, lesion: squamous-cell carcinoma, dosed 72 weeks, study length 72 weeks
  TD50: 7.11 mg/kg/day
rat, strain F344/DuCrj, females, in feed, site: large intestine, lesion: adenocarcinoma, dosed 72 weeks, study length 72 weeks
  TD50: 19.3 mg/kg/day
rat, strain F344/DuCrj, females, in feed, site: liver, lesion: hepatocellular carcinoma, dosed 72 weeks, study length 72 weeks
  TD50: 8.24 mg/kg/day
rat, strain F344/DuCrj, females, in feed, site: oral cavity, lesion: squamous-cell carcinoma, dosed 72 weeks, study length 72 weeks
  TD50: 195 mg/kg/day
rat, strain F344/DuCrj, females, in feed, site: skin, lesion: squamous-cell carcinoma, dosed 72 weeks, study length 72 weeks
  TD50: 63.2 mg/kg/day
rat, strain F344/DuCrj, females, in feed, site: small intestine, lesion: adenocarcinoma, dosed 72 weeks, study length 72 weeks
  TD50: 195 mg/kg/day
rat, strain F344/DuCrj, males, in feed, site: Zymbal's gland, lesion: squamous-cell carcinoma, dosed 55 weeks, study length 55 weeks
  TD50: 0.999 mg/kg/day
rat, strain F344/DuCrj, males, in feed, site: large intestine, lesion: adenocarcinoma, dosed 55 weeks, study length 55 weeks
  TD50: 2.34 mg/kg/day
rat, strain F344/DuCrj, males, in feed, site: liver, lesion: hepatocellular carcinoma, dosed 55 weeks, study length 55 weeks
  TD50: 2.08 mg/kg/day
rat, strain F344/DuCrj, males, in feed, site: oral cavity, lesion: squamous-cell carcinoma, dosed 55 weeks, study length 55 weeks
  TD50: 44.8 mg/kg/day
rat, strain F344/DuCrj, males, in feed, site: skin, lesion: squamous-cell carcinoma, dosed 55 weeks, study length 55 weeks
  TD50: 4.16 mg/kg/day
rat, strain F344/DuCrj, males, in feed, site: small intestine, lesion: adenocarcinoma, dosed 55 weeks, study length 55 weeks
  TD50: 6.45 mg/kg/day
rat, strain Fischer 344, females, in feed, site: Zymbal's gland, lesion: one or several types, types not named, dosed 53 weeks, study length 78 weeks
  TD50: 2.26 mg/kg/day
rat, strain Fischer 344, females, in feed, site: liver, lesion: hepatocellular carcinoma, dosed 53 weeks, study length 78 weeks
  TD50: 5.06 mg/kg/day
rat, strain Fischer 344, females, in feed, site: lung, lesion: adenoma, dosed 53 weeks, study length 78 weeks
  TD50: 16.2 mg/kg/day
rat, strain Fischer 344, females, in feed, site: mammary gland, lesion: one or several types, types not named, dosed 53 weeks, study length 78 weeks
  TD50: 3.52 mg/kg/day
rat, strain Fischer 344, females, in feed, site: preputial gland, lesion: one or several types, types not named, dosed 53 weeks, study length 78 weeks
  TD50: 3.19 mg/kg/day
rat, strain Fischer 344, females, in feed, site: sebaceous gland, lesion: several types, types named in the paper, dosed 53 weeks, study length 78 weeks
  TD50: 32.9 mg/kg/day
rat, strain Fischer 344, males, by gavage, site: Zymbal's gland, lesion: squamous-cell carcinoma, dosed 35 weeks, study length 52 weeks
  TD50: 0.287 mg/kg/day
rat, strain Fischer 344, males, by gavage, site: any site (literature study), lesion: several types, types named in the paper, dosed 35 weeks, study length 52 weeks
  TD50: 0.287 mg/kg/day
rat, strain Fischer 344, males, by gavage, site: colon, lesion: adenocarcinoma, dosed 35 weeks, study length 52 weeks
  TD50: 0.803 mg/kg/day
rat, strain Fischer 344, males, by gavage, site: liver, lesion: hepatocellular carcinoma, dosed 35 weeks, study length 52 weeks
  TD50: 0.579 mg/kg/day
rat, strain Fischer 344, males, by gavage, site: skin, lesion: squamous-cell carcinoma, dosed 35 weeks, study length 52 weeks
  TD50: 0.579 mg/kg/day
rat, strain Fischer 344, males, by gavage, site: small intestine, lesion: adenocarcinoma, dosed 35 weeks, study length 52 weeks
  TD50: 1.55 mg/kg/day
rat, strain Fischer 344, males, in feed, site: Zymbal's gland, lesion: one or several types, types not named, dosed 53 weeks, study length 63 weeks
  TD50: 1.2 mg/kg/day
rat, strain Fischer 344, males, in feed, site: colon, lesion: one or several types, types not named, dosed 53 weeks, study length 63 weeks
  TD50: 10.5 mg/kg/day
rat, strain Fischer 344, males, in feed, site: liver, lesion: hepatocellular carcinoma, dosed 53 weeks, study length 63 weeks
  TD50: 10.5 mg/kg/day
rat, strain Fischer 344, males, in feed, site: lung, lesion: several types, types named in the paper, dosed 53 weeks, study length 63 weeks
  TD50: 27.1 mg/kg/day
rat, strain Fischer 344, males, in feed, site: preputial gland, lesion: one or several types, types not named, dosed 53 weeks, study length 63 weeks
  TD50: 6.87 mg/kg/day
rat, strain Fischer 344, males, in feed, site: sebaceous gland, lesion: several types, types named in the paper, dosed 53 weeks, study length 63 weeks
  TD50: 0.998 mg/kg/day

## CC1=NN(c2ccccc2)C(=O)C1
mouse, strain B6C3F1, females, in feed, site: any site (literature study), lesion: several types, types named in the paper, dosed 102 weeks, study length 104 weeks
  carcinogen call: negative (inactive)
mouse, strain B6C3F1, males, in feed, site: any site (literature study), lesion: several types, types named in the paper, dosed 102 weeks, study length 104 weeks
  carcinogen call: negative (inactive)
rat, strain Fischer 344, females, in feed, site: any site (literature study), lesion: several types, types named in the paper, dosed 103 weeks, study length 105 weeks
  carcinogen call: negative (inactive)
rat, strain Fischer 344, males, in feed, site: any site (literature study), lesion: several types, types named in the paper, dosed 103 weeks, study length 105 weeks
  carcinogen call: negative (inactive)
rat, strain Fischer 344, males, in feed, site: liver, lesion: hepatocellular adenoma + hepatocellular carcinoma + neoplastic nodule, dosed 103 weeks, study length 105 weeks
  TD50: 3700 mg/kg/day

## CN(N=O)C(=O)N[C@@H](C=O)[C@@H](O)[C@H](O)[C@H](O)CO
mouse, strain Swiss, females, i.p., site: any site (literature study), lesion: benign tumor, dosed 26 weeks, study length 78 weeks
  TD50: 0.188 mg/kg/day
mouse, strain Swiss, females, i.p., site: any site (literature study), lesion: malignant tumor, dosed 26 weeks, study length 78 weeks
  TD50: 6.32 mg/kg/day
mouse, strain Swiss, females, i.p., site: any site (literature study), lesion: several types, types named in the paper, dosed 26 weeks, study length 78 weeks
  TD50: 0.486 mg/kg/day
mouse, strain Swiss, females, i.p., site: kidney, lesion: adenoma, dosed 26 weeks, study length 78 weeks
  TD50: 1.39 mg/kg/day
mouse, strain Swiss, females, i.p., site: lung, lesion: several types, types named in the paper, dosed 26 weeks, study length 78 weeks
  TD50: 0.193 mg/kg/day
mouse, strain Swiss, females, i.p., site: uterus, lesion: sarcoma, dosed 26 weeks, study length 78 weeks
  TD50: 13.9 mg/kg/day
mouse, strain Swiss, males, i.p., site: any site (literature study), lesion: benign tumor, dosed 26 weeks, study length 72 weeks
  TD50: 0.698 mg/kg/day
mouse, strain Swiss, males, i.p., site: any site (literature study), lesion: malignant tumor, dosed 26 weeks, study length 72 weeks
  TD50: 3.53 mg/kg/day
mouse, strain Swiss, males, i.p., site: any site (literature study), lesion: several types, types named in the paper, dosed 26 weeks, study length 72 weeks
  TD50: 0.217 mg/kg/day
mouse, strain Swiss, males, i.p., site: kidney, lesion: tubular-cell adenoma, dosed 26 weeks, study length 72 weeks
  TD50: 2.44 mg/kg/day
mouse, strain Swiss, males, i.p., site: liver, lesion: several types, types named in the paper, dosed 26 weeks, study length 72 weeks
  TD50: 27.3 mg/kg/day
mouse, strain Swiss, males, i.p., site: lung, lesion: several types, types named in the paper, dosed 26 weeks, study length 72 weeks
  TD50: 0.462 mg/kg/day
rat, strain Charles River CD (Sprague-Dawley), females, i.p., site: any site (literature study), lesion: malignant tumor, dosed 26 weeks, study length 78 weeks
  TD50: 0.363 mg/kg/day
rat, strain Charles River CD (Sprague-Dawley), females, i.p., site: any site (literature study), lesion: several types, types named in the paper, dosed 26 weeks, study length 78 weeks
  TD50: 1.14 mg/kg/day
rat, strain Charles River CD (Sprague-Dawley), females, i.p., site: kidney, lesion: several types, types named in the paper, dosed 26 weeks, study length 78 weeks
  TD50: 1.27 mg/kg/day
rat, strain Charles River CD (Sprague-Dawley), females, i.p., site: liver, lesion: cavernous hemangioma, dosed 26 weeks, study length 78 weeks
  TD50: 5.63 mg/kg/day
rat, strain Charles River CD (Sprague-Dawley), females, i.p., site: liver, lesion: several types, types named in the paper, dosed 26 weeks, study length 78 weeks
  TD50: 4.43 mg/kg/day
rat, strain Charles River CD (Sprague-Dawley), females, i.p., site: mammary gland, lesion: carcinoma, dosed 26 weeks, study length 78 weeks
  TD50: 1.41 mg/kg/day
rat, strain Charles River CD (Sprague-Dawley), females, i.p., site: uterus, lesion: sarcoma, dosed 26 weeks, study length 78 weeks
  TD50: 2.46 mg/kg/day
rat, strain Charles River CD (Sprague-Dawley), males, i.p., site: any site (literature study), lesion: benign tumor, dosed 26 weeks, study length 78 weeks
  TD50: 16.8 mg/kg/day
rat, strain Charles River CD (Sprague-Dawley), males, i.p., site: any site (literature study), lesion: malignant tumor, dosed 26 weeks, study length 78 weeks
  TD50: 1.03 mg/kg/day
rat, strain Charles River CD (Sprague-Dawley), males, i.p., site: any site (literature study), lesion: several types, types named in the paper, dosed 26 weeks, study length 78 weeks
  TD50: 0.751 mg/kg/day
rat, strain Charles River CD (Sprague-Dawley), males, i.p., site: kidney, lesion: several types, types named in the paper, dosed 26 weeks, study length 78 weeks
  TD50: 0.776 mg/kg/day
rat, strain Charles River CD (Sprague-Dawley), males, i.p., site: liver, lesion: liver-cell carcinoma, dosed 26 weeks, study length 78 weeks
  TD50: 20.4 mg/kg/day

## COc1ccc([N+](=O)[O-])cc1N=Nc1c(O)c(C(=O)Nc2cccc([N+](=O)[O-])c2)cc2ccccc12
mouse, strain B6C3F1, females, in feed, site: any site (literature study), lesion: several types, types named in the paper, dosed 103 weeks, study length 103 weeks
  TD50: 29700 mg/kg/day (inactive)
mouse, strain B6C3F1, females, in feed, site: lung, lesion: alveolar/bronchiolar adenoma + alveolar/bronchiolar carcinoma, dosed 103 weeks, study length 103 weeks
  TD50: 45200 mg/kg/day
mouse, strain B6C3F1, males, in feed, site: any site (literature study), lesion: several types, types named in the paper, dosed 103 weeks, study length 103 weeks
  TD50: 20200 mg/kg/day (inactive)
mouse, strain B6C3F1, males, in feed, site: liver, lesion: hepatocellular adenoma + hepatocellular carcinoma + neoplastic nodule, dosed 103 weeks, study length 103 weeks
  TD50: 15100 mg/kg/day
mouse, strain B6C3F1, males, in feed, site: lung, lesion: alveolar/bronchiolar adenoma + alveolar/bronchiolar carcinoma, dosed 103 weeks, study length 103 weeks
  TD50: 112000 mg/kg/day
rat, strain Fischer 344, females, in feed, site: any site (literature study), lesion: several types, types named in the paper, dosed 103 weeks, study length 104 weeks
  carcinogen call: negative (inactive)
rat, strain Fischer 344, males, in feed, site: kidney, lesion: tubule adenoma + tubule carcinoma, dosed 103 weeks, study length 104 weeks
  TD50: 19800 mg/kg/day and 16300 mg/kg/day
